Earlier results, collected in patent publication EP0116853A1, “Pyridazinones, processes for preparing them, therapeutical compositions containing these compounds and their use” (BASF Aktiengesellschaft, priority 1983, dated 1984).

Conditions: in contrast to the corresponding 4,5-dihydro compound

## CC(=O)Nc1ccc(-c2n[nH]c(=O)cc2C)cc1 [6-(p-Acetylamino-phenyl)-5-methyl-3(2H)-pyridazinon]
  blutdrucksenkende Wirkung: keine blutdrucksenkende Wirkung
